Assay results: ChEMBL document CHEMBL3885861, “Open TG-GATES”

Organism: Rattus norvegicus
Assay: Open TG-GATES - Regimen: Single
Format: toxicity, organism-based, Sprague-Dawley
Parameters: regimen Single, gender Male, age 6 weeks
Conditions: in vivo, po, route gavage; for Bas / Eos / Ht / Lym / MCH / Mono / Neu / RBC / Ret: tissue Blood; for KIDNEY_L / KIDNEY_R / KIDNEY_TOTAL: tissue Kidney; for LIVER: tissue Liver; for ALP / ALT / AST / CRE / Ca / DBIL / IP / K / LDH / Na / PL / RALB / TBIL / TC / TG / TP / gamma-GTP: tissue Plasma
[1] = 200 mg/kg, 24 h, dose level Low

## COc1cc2ncnc(Nc3ccc(F)c(Cl)c3)c2cc1OCCCN1CCOCC1 [GEFITINIB]
200 mg/kg, 3 h, dose level Low
  Bas: 0%
  Eos: 0.8%
  Ht: 36.1%
  Lym: 74.4%
  MCH: 20.9 pg
  Mono: 3%
  Neu: 21.4%
  RBC: 577.2 x10_4/ul
  Ret: 8.9%
  KIDNEY_L: 1 g
  KIDNEY_R: 1 g
  KIDNEY_TOTAL: 2 g
  LIVER: 9.2 g
  ALP: 1618.4 IU/L
  ALT: 52 IU/L
  AST: 82.8 IU/L
  CRE: 0.1 mg/dL
  Ca: 9.9 mg/dL
  DBIL: 0.016 mg/dL
  IP: 9.2 mg/dL
  K: 4.1 meq/L
  LDH: 220.4 IU/L
  Na: 141.6 meq/L
  PL: 147.4 mg/dL
  RALB: 3.8 g/dL
  TBIL: 0.066 mg/dL
  TC: 97 mg/dL
  TG: 39.9 mg/dL
  TP: 5.3 g/dL
  gamma-GTP: 0.9 IU/L
200 mg/kg, 6 h, dose level Low
  TERMINAL_BW: 210.7 g
  Bas: 0%
  Eos: 0.6%
  Ht: 37.3%
  Lym: 79.4%
  MCH: 21.5 pg
  Mono: 3.6%
  Neu: 15.8%
  RBC: 579.2 x10_4/ul
  Ret: 9.1%
  KIDNEY_L: 0.9 g
  KIDNEY_R: 0.9 g
  KIDNEY_TOTAL: 1.9 g
  LIVER: 8.9 g
  ALP: 1407.4 IU/L
  ALT: 53.8 IU/L
  AST: 78.6 IU/L
  CRE: 0.2 mg/dL
  Ca: 9.9 mg/dL
  DBIL: 0.018 mg/dL
  IP: 9.6 mg/dL
  K: 4 meq/L
  LDH: 142.6 IU/L
  Na: 141.5 meq/L
  PL: 142.8 mg/dL
  RALB: 3.9 g/dL
  TBIL: 0.076 mg/dL
  TC: 93 mg/dL
  TG: 31.4 mg/dL
  TP: 5.4 g/dL
  gamma-GTP: 0.9 IU/L
200 mg/kg, 9 h, dose level Low
  TERMINAL_BW: 210 g
  Bas: 0%
  Eos: 0.6%
  Ht: 38.5%
  Lym: 78.4%
  MCH: 20.9 pg
  Mono: 3.2%
  Neu: 17.2%
  RBC: 611 x10_4/ul
  Ret: 8.8%
  KIDNEY_L: 0.9 g
  KIDNEY_R: 0.9 g
  KIDNEY_TOTAL: 1.8 g
  LIVER: 8.6 g
  ALP: 1488 IU/L
  ALT: 48.2 IU/L
  AST: 78.4 IU/L
  CRE: 0.2 mg/dL
  Ca: 9.9 mg/dL
  DBIL: 0.01 mg/dL
  IP: 9.5 mg/dL
  K: 4.3 meq/L
  Na: 143.6 meq/L
  PL: 146 mg/dL
  RALB: 3.8 g/dL
  TBIL: 0.048 mg/dL
  TC: 93.6 mg/dL
  TG: 39 mg/dL
  TP: 5.4 g/dL
  gamma-GTP: 1.1 IU/L
[1]
  TERMINAL_BW: 215.5 g
  Bas: 0%
  Eos: 0.8%
  Ht: 40.7%
  Lym: 66%
  MCH: 20.6 pg
  Mono: 4%
  Neu: 28.6%
  RBC: 635 x10_4/ul
  Ret: 8.2%
  KIDNEY_L: 1 g
  KIDNEY_R: 1 g
  KIDNEY_TOTAL: 2 g
  LIVER: 9.5 g
  ALP: 1548.6 IU/L
  ALT: 39.6 IU/L
  AST: 72.8 IU/L
  CRE: 0.2 mg/dL
  Ca: 10.7 mg/dL
  DBIL: 0.004 mg/dL
  IP: 8.6 mg/dL
  K: 4.4 meq/L
  LDH: 215.2 IU/L
  Na: 142.9 meq/L
  PL: 166 mg/dL
  RALB: 4 g/dL
  TBIL: 0.022 mg/dL
  TG: 69.4 mg/dL
  TP: 5.5 g/dL
  gamma-GTP: 1.2 IU/L
600 mg/kg, 3 h, dose level Middle
  TERMINAL_BW: 215 g
